Test results: article PMC10974505, “Evaluation of the Antifungal and Antiproliferative Properties of the Lichen Roccella tinctoria DC. Extracts and Main Components” (Pharmaceutics, 2024)
In brackets after ≈: the same amount, converted by molar mass.

Key:
[1] = test system: HeLa (cervical cancer cell line); parameters: method as in doi:10.32508/stdjns.v2i5.779; conditions: 100 µg/mL, isolated from Roccella sinensis; cited from earlier work
[2] = test system: C. albicans planktonic cells; assay: Antifungal susceptibility test (broth microdilution), planktonic cells; type: cell-based, Candida albicans ATCC 10231; conditions: for MIC50 / MIC90 / MIC: Candida albicans; for MIC50: read-out: GM MIC50; for MIC90: minimum inhibitory concentration of 90% fungal growth, read-out: GM MIC90; for MIC: minimum inhibitory concentration of 100% fungal growth, read-out: GM MIC100
Experimental: Candida albicans ATCC 10231 was obtained from the American Type Culture Collection (ATCC, Rockville, MD, USA). The antifungal effects of the isolated compounds and of the extracts against C. albicans ATCC 10231 were measured using the broth microdilution method following the standardized methods for yeast. C. albicans was cultured on Sabouraud dextrose agar (Sigma Aldrich, St. Louis, MO, USA) at 35 °C for 24 h. The final concentration of the inoculum was 2500 cells/mL. The extracts and the compounds were firstly dissolved in DMSO and then diluted at least 100-times with RPMI-1640 medium buffered with MOPS (4-morpholinepropanesulfonic acid). […] The minimal inhibitory concentration (MIC) was calculated by comparison of the growth in each well with that of the drug-free control after 24 h. Each experiment was conducted in triplicate and replicated at least three times on different dates.
The antifungal activity of extracts and isolated compounds against C. albicans planktonic cells was examined following the standardized broth microdilution method for yeasts (CLSI M27-A3).

[3] = test system: NCI-H460 (human lung cancer cell line); parameters: method as in doi:10.32508/stdjns.v2i5.779; conditions: NCI-H460, 100 µg/mL; isolated from Roccella sinensis; cited from earlier work
[4] = test system: A549 lung cancer cells; assay: MTT cytotoxicity assay, A549 lung cancer cells; type: cell-based, human; conditions: for cytotoxicity at the highest concentration tested: A549 cells, 500 µg/mL
Source text: (§1) A549 cells were kindly provided by Prof. Lucia Nencioni (Dept. of Public Health and Infectious Diseases, Sapienza University of Rome, Rome, Italy), while Mz-ChA-1 and H69 cells were donated by Prof. Romina […]. of Anatomical, Histological, Forensic and Orthopedic Sciences, Sapienza University of Rome, Rome, Italy) and Prof. […] (Indiana University School of Medicine, Indianapolis, IN, USA). BEAS-2B cells were provided by Sigma-Aldrich (St. Louis, MO, USA). […] The growth media were replaced twice per week; subcultures were prepared when the cells achieved approximately 80% confluency. […] In brief, 2 × 10^4 cells/well were cultured into 96-well microplates for 24 h. Then, they were subjected to a treatment with progressive concentrations of the tested extracts for further 24 h. […] The effect of the treatments on the cell viability was expressed as percentage of the vehicle control. […] In addition, tolerability studies in human epithelial BEAS-2B bronchial cells and H69 cholangiocytes were performed in order to establish the possible selective cytotoxicity of the tested samples to cancer cells.

[5] = test system: different fungal strains including C. albicans; parameters: method as in PMID 30732479; conditions: cited from earlier work
[6] = test system: MCF-7 (breast cancer cell line); parameters: method as in doi:10.32508/stdjns.v2i5.779; conditions: MCF-7, 100 µg/mL; isolated from Roccella sinensis; cited from earlier work
[7] = test system: Mz-ChA-1 cholangiocarcinoma cells; assay: MTT cytotoxicity assay, Mz-ChA-1 cholangiocarcinoma cells; type: cell-based, human; conditions: for cytotoxicity at the highest concentration tested: Mz-ChA-1 cells, 500 µg/mL
Source text: as §1

[8] = test system: H69 cholangiocytes; assay: MTT tolerability assay, noncancerous H69 cholangiocytes; type: cell-based, human; conditions: MTT, 24 h treatment, confidence limits in brackets, ne 1 = not evaluable, highest inhibitory effect lower than 80%, ne 2 = not evaluable, lower inhibitory effect higher than 40%; for IC50: Homo sapiens, read-out: IC50 [µg/mL] (CL) H69
Source text: as §1

[9] = as above; type: cell-based, human; conditions: human, SV40-immortalized H69 cholangiocytes (noncancerous); 50 µg/mL; read-out: lowering of H69 cell viability
Source text: as §1

[10] = test system: BEAS-2B bronchial cells; assay: MTT tolerability assay, noncancerous BEAS-2B bronchial cells; type: cell-based, human; conditions: for inhibition of BEAS-2B cell viability: 50 µg/mL; for IC50: Homo sapiens, BEAS-2B, read-out: IC50 [µg/mL] (CL) BEAS-2B
Source text: as §1

[11] = test system: HepG2 (liver hepatocellular carcinoma cell line); parameters: method as in doi:10.32508/stdjns.v2i5.779; conditions: HepG2, 100 µg/mL; isolated from Roccella sinensis; cited from earlier work
[12] = test system: C. albicans biofilm; assay: Anti-Candida biofilm formation, 24 h (CV assay); type: cell-based, Candida albicans; conditions: concentration not given
Experimental: Presterilized, polystyrene, flat-bottom 48-well microtiter plates were used to investigate anti-Candida adhesion property of the extracts and the compounds [47, 48]. […] After that time, the cell suspensions were aspirated, and each well was washed twice with PBS to remove loosely adherent cells. Thus, CV assay was used to quantitatively study Candida adhesion (90 min) and early biofilm formation (24 h). The biomass was measured at 590 nm using a microplate reader.
(§2) Candida adhesion is followed by the colonization and formation of the biofilm, which is a community of cells with the ability to secrete the extracellular matrix (ECM). Biofilm-characterized infections are the most difficult to treat, and preventing biofilm formation could be of major importance. An anti-Candida biofilm formation assay was conducted after 24 h and 48 h of biofilm incubation, and the total biomass was evaluated using the CV assay.

[13] = test system: C. albicans ATCC 10231; assay: Galleria mellonella survival assay (larvae infected with C. albicans); type: in vivo
Experimental: The survival assay was carried out as described by Cairone and colleagues. G. mellonella larvae weighed 0.3 ± 0.03 g and were obtained from Todaro Sport (Rome, Italy). […] Three control groups were used, one with no treatment applied, one pierced and inoculated with sterile saline solution, and one treated with C. albicans suspension. The larvae were subsequently placed in an incubator set at 37 °C and observed for 120 h. […] Each trial was replicated three times, and the outcomes were documented as the survival percentage.
G. mellonella larvae as an in vivo model were chosen due to the similarities between their immunity system and the mammalian one. Furthermore, G. mellonella larvae provide a well-established in vivo model known for its ease of handling and utilization. They are extensively employed to assess the antimicrobial efficacy of both chemical and natural compounds, aligning with the ethical guidelines of the 3Rs (Replacement, Reduction, and Refinement) in animal research.

[14] = test system: Fusarium oxysporum; parameters: method as in doi:10.4038/jnsfsr.v40i1.4167; conditions: 100 µg/mL; cited from earlier work
[15] = test system: Alternaria solani; parameters: method as in doi:10.4038/jnsfsr.v40i1.4167; conditions: 100 µg/mL; cited from earlier work
[16] = test system: C. albicans biofilm; assay: Anti-Candida biofilm formation, 48 h (CV assay); type: cell-based; conditions: 512 μg/mL
Experimental: Candida biofilm was established on flat-bottomed, 48-well microtiter plates, following previous protocols with minor modifications. […] Plates were then incubated for 48 h at 37 °C. After biofilm formation, the medium was aspirated, and non-adherent cells were removed by washing twice with phosphate-buffered saline (PBS). C. albicans biomass was quantified using CV assay.
as §2

[17] = test system: HCT-116 colon cancer cells; parameters: method as in PMID 35190352; conditions: cited from earlier work
[18] = geometric mean, minimum inhibitory concentration of 50% fungal growth, 24 h
[19] = MTT, 24 h treatment, confidence limits in brackets, ne 1 = not evaluable, highest inhibitory effect lower than 80%, ne 2 = not evaluable, lower inhibitory effect higher than 40%

| MIC50 [2, 18] | MIC90 ([2]; geometric mean, 24 h) | MIC ([2]; geometric mean, 24 h) | Structure (SMILES) | cytotoxicity at the highest concentration tested [4] | IC50 [µg/mL] (CL) A549 [4, 19] | IC50 [µg/mL] (CL) Mz-ChA-1 [7, 19] | cytotoxicity at the highest concentration tested [7] | IC50 [8] | cytotoxicity at 24 h, 50 µg/mL [9] | inhibition of BEAS-2B cell viability [10] | IC50 [10, 19] | also measured |
| --- | --- | --- | --- | --- | --- | --- | --- | --- | --- | --- | --- | --- |
| > 128 µg/mL | > 128 µg/mL | > 128 µg/mL | Cc1cc(OC(=O)c2c(C)cc(O)cc2O)cc(O)c1C(=O)OCC(O)C(O)CO (centres unmarked) [Compound 1, erythrin] | at least 60% | ne ^1 | ne ^1 | at least 60% | 138 µg/mL (≈ 327 µM) | ~40% | at least 40% |  | toxicity [1]: nontoxic; activity against the planktonic growth of C. albicans ([2]; at the highest concentration (512 μg/mL)): no activity; toxicity [3]: nontoxic; antifungal activity [5]: not shown any antifungal activity; toxicity [6]: nontoxic; IC50 [µg/mL] (CL) BEAS-2B [10, 19]: ne ^2; toxicity [11]: nontoxic; percent rate of inhibition of biofilm formation [12]: lower than 40%; infected larvae mortality rate ([13]; 256 μg/mL (10 μL), control group mortality 90%): 20% |
| 87 µg/mL (≈ 478 µM) | > 128 µg/mL | > 128 µg/mL | COC(=O)c1c(C)cc(O)cc1O [Compound 2, methyl orsellinate] | lower than 50% | ne ^1 | ne ^1 | lower than 50% |  | 60% | at least 40% | 103 µg/mL (≈ 564 µM) | GM MIC50 [2, 18]: 87 µg/mL; inhibition percentage [14]: 67.39%; inhibition percentage [15]: 58.41%; IC50 [µg/mL] (CL) H69 [8]: ne ^2; larvae survival rate ([13]; 512 μg/mL (10 μL), after 5 days, infected control survival 10%): 50%; inhibition at 512 µg/mL [16]: 72% |
|  |  |  | Cc1cc(O)cc(O)c1C(=O)OCC(O)C(O)CO (centres unmarked) [Compound 3, montagnetol] |  |  |  |  |  |  |  |  | melting point: 158 to 160 °C |
|  |  |  | COc1cccc2c1C(=O)c1c(O)c3c(c(O)c1C2=O)C[C@@](O)(C(=O)CO)C[C@@H]3O[C@H]1C[C@H](N)[C@H](O)[C@H](C)O1 [Doxorubicin, doxorubicin, reference compound] |  |  |  |  | 15.7 µg/mL (≈ 28.9 µM) |  |  | 4.1 µg/mL (≈ 7.54 µM) | IC50 ([4]; Homo sapiens, A549, MTT, 24 h treatment, confidence limits in brackets, ne 1 = not evaluable, highest inhibitory effect lower than 80%, ne 2 = not evaluable, lower inhibitory effect higher than 40%, read-out: IC50 [µg/mL] (CL) A549): 17.3 µg/mL (≈ 31.8 µM); IC50 ([7]; Homo sapiens, MTT, 24 h treatment, confidence limits in brackets, ne 1 = not evaluable, highest inhibitory effect lower than 80%, ne 2 = not evaluable, lower inhibitory effect higher than 40%, read-out: IC50 [µg/mL] (CL) Mz-ChA-1): 24.5 µg/mL (≈ 45.1 µM) |
|  |  |  | Cc1cc(OC(=O)c2c(C)cc(O)cc2O)cc(O)c1C(=O)O [lecanoric acid] |  |  |  |  |  |  |  |  | effect on HCT-116 cells [17]: affected the cell viability and colony formation, and it induced a cell cycle block |
